Tests used:
[1] = system: GFP-FtsI expressing E. coli; set-up: method as in PMID 19995973; settings: known inhibitor of FtsI; 22 μM in Fig. 5C; cited from earlier work
[2] = system: carbapenem-resistant A. baumannii; assay: Murine chronic burn-wound infection model; format: in vivo, mice; settings: 30 mg kg^−1 topically for 5 days; untreated 8 log CFU g^−1
Method: Fig. 6 (A) Propensity of vancomycin and VanQAmC10 to induce resistance in MRSA upon serial exposure to sub-MIC concentrations; (B) (i) experimental design for in vivo efficacy study in a murine thigh infection model, (ii) in vivo efficacy of VanQAmC10 and vancomycin against the multidrug-resistant methicillin-resistant S. aureus (MRSA) (n = 3/dose). Antibiotics were administered intraperitoneally twice at 12 h intervals at a dose of 12 mg kg^−1. (C) (i) Experimental design for in vivo efficacy study in murine burn wound infection model, (ii) in vivo efficacy of VanQAmC10 and colistin against the carbapenem-resistant A. baumannii (n = 5/dose, 1 mouse died in untreated control). VanQAmC10 and colistin were treated topically at 30 mg kg^−1 for 5 days (‘***’ indicates p < 0.0001, ‘**’ indicates p < 0.001, ‘*’ p < 0.05, p = 0.08 (n.s.) for VanQAmC10 with respect to vancomycin).
Further, the efficacy of VanQAmC10 (8) was tested in a chronic burn-wound infection model of A. baumannii.[40] Chronic burn wounds on the back of mice were infected with A. baumannii. […] Infected mice were treated with 30 mg kg^−1 of VanQAmC10 and colistin for five days consecutively. The bacterial load in the untreated group increased to 8 log CFU g^−1 six days post-infection. […] The use of colistin is however limited due to its toxicity and bacteria easily develop resistance to it. […]

CC1=C(C(=O)O)N2C(=O)[C@@H](NC(=O)[C@H](N)c3ccccc3)[C@H]2SC1 [Cephalexin]
phenotype and localization of GFP-FtsI [1]: filamentous phenotype with mislocalized GFP-FtsI protein

colistin [reference compound]
lower bacterial load as compared to the untreated mice [2]: 4.8 log CFU g^−1

From article PMC9977398, “Next-generation membrane-active glycopeptide antibiotics that also inhibit bacterial cell division” (Chemical Science, 2023)
